Where two headings read alike, the source gives them in different places.
Experiments:
[1] = Dynamic light scattering of Kolliphor HS15 micelles; assay type: physicochemical; details: 1 mg/mL in distilled water using 5% Kolliphor HS15
Method: FIGS. 7A-7E illustrates schematic diagrams of micellized synergistic combination (SY) of TIr3 and B2 using Kolliphor HS 15 surfactant (FIG. 7A). As a result, when TIr3, B2, and 0.5 mg/ml TIr3+0.5 mg/ml B2 (SY) materials are dissolved in distilled water at a concentration of 1 mg/mL using 5% Kolliphor HS15, it was found via dynamic light scattering (DLS) that nanoparticles with a size of approximately 10 nm were formed (FIG. 7B). In addition, the size of the SY combination was reidentified through transmission electron microscopy (TEM) (FIG. 7C). […] After four administrations of the drug, the results of hepatotoxicity (alanine aminotransferase, ALT) on the 17th day are shown in FIG. 7E.

MDA-MB-231 = assay: MTT cell viability after iridium complex treatment, with or without light (photodynamic cancer cell killing); assay type: cell-based
Method: (§1) After seeding 1.5×10^4 cells in a 96-well plate, the cells were cultured overnight at 37° C. under 5% carbon dioxide conditions. Afterwards, the cells were treated with the iridium complex and cultured for 2 hours, after which the medium was replaced with fresh medium. After irradiated for 30 seconds with a 1 sun simulator (100 mW/cm2, PEG-L01, Peccell), cells were cultured for an additional 24 hours in a humidified incubator containing 5% carbon dioxide at 37° C. Cell viability was measured using the MTT (tetrazolium salt (3-(4,5-dimethylthiazol-2-yl)-2,5-diphenyltetrazolium bromide)) assay. MTT reagent was added to each well and cultured for 4 hours, and then the formazan crystals produced in the surviving cells were dissolved in DMSO, followed by measurement of the absorbance at 570 nm.
(§2) When the same light (1 sun, 3 J/cm^2) was irradiated to cancer cells administered with the HBrb, B2, and TIr3 iridium complexes as respective photosensitizers, the IC50 values for the respective photo sensitizers were first calculated, and the results are shown in Table 2 below.
(§3) Data indicating the inherent toxicity may be determined by cell viability under conditions without light application (hv−). The experimental results in FIGS. 6A-6F show the cell viability for each cell under conditions where no light was given, where M indicates the cell line MDA-MB-231, A indicates the cell line A549, H indicates the cell line HeLa, C indicates the cell line Caco-2, and P indicates the cell line PANC-1, respectively. FIGS. 6A, 6B, and 6C represent the cell viability when each substance was administered to each cell line for 2 hours, replaced with new media, and then cultured for an additional 24 hours. FIG. 6D is a graph of cell viability when TIr3 and B2 were administered at different concentrations, and at the concentration of a combination of the two (TIr3+B2), to PANC-1, pancreatic cancer cells. […] FIGS. 6E and 6F show the results of identifying the change in the cell viability in the MDA-MB-231 breast cancer cell line under conditions with TIr3 only and the TIr3+B2 combination depending on the presence of light irradiation.

HeLa = assay: as above; assay type: cell-based; details: for IC50: HeLa
Method: as §1, §2, §3

PANC-1 = assay: as above; assay type: cell-based; details: for cell viability (hv−): FIG. 6D, especially 16 and 32 μM
Method: as §1, §2, §3

Caco-2 = assay: as above; assay type: cell-based
Method: as §1, §2, §3

A549 = assay: as above; assay type: cell-based
Method: as §1, §2, §3

MKN45 = assay: as above; assay type: cell-based
Method: as §1, §2

[2] = light 1 sun, 3 J/cm^2, read-out: IC50 (hv+)
[3] = no light, read-out: IC50 (hv−), IC50, dark
[4] = light 1 sun, 3 J/cm^2 (100 mW/cm2, 30 s), 2 h treatment, 24 h culture, read-out: IC50 (hv+)

Structure (SMILES)	nanoparticle size (DLS) [1]	IC50 (MDA-MB-231; [2])	IC50 (MDA-MB-231; [3])	IC50 (HeLa; [4])	IC50 (HeLa; [3])	inherent toxicity of photosensitizer (HeLa; up to 32 μM, no light)	IC50 (PANC-1; [4])	cell viability (hv−) (PANC-1; no light)	IC50 (PANC-1; [3])	IC50 (Caco-2; [2])	IC50 (Caco-2; [3])	IC50 (A549; [4])	IC50 (A549; [3])	IC50 (MKN45; [2])	IC50 (MKN45; [3])
Cc1cc(-c2sc3ccccc3[c]2[Ir]([O]C(=O)c2ncccc2OCCCN2CCOCC2)[c]2c(-c3cc(C)c4ccccc4n3)sc3ccccc23)nc2ccccc12 [Example B2]	approximately 10 nm	0.89 ± 0.1 µM	> 32 µM	2.4 ± 0.08 µM	> 32 µM	non-toxic	11.7 ± 2.02 µM	excellent biocompatibility	> 32 µM	0.68 ± 0.01 µM	> 32 µM	3.8 ± 1.3 µM	> 32 µM	0.86 ± 0.03 µM	> 32 µM
CC(=O)C=C(C)[O][Ir]([c]1c(-c2cc(C(F)(F)F)c3ccccc3n2)sc2ccccc12)[c]1c(-c2cc(C(F)(F)F)c3ccccc3n2)sc2ccccc12 [FIra]	–	–	–	> 32 µM	–	–	> 32 µM	–	–	–	–	> 32 µM	–	–	–
O=C([O][Ir]([c]1c(-c2cc(C(F)(F)F)c3ccccc3n2)sc2ccccc12)[c]1c(-c2cc(C(F)(F)F)c3ccccc3n2)sc2ccccc12)c1ncccc1O [FIrp]	–	–	–	> 32 µM	–	–	> 32 µM	–	–	–	–	> 32 µM	–	–	–
CC(=O)C=C(C)[O][Ir]([c]1c(-c2cc(C)c3ccccc3n2)sc2ccccc12)[c]1c(-c2cc(C)c3ccccc3n2)sc2ccccc12 [HIra]	–	–	–	> 32 µM	–	–	> 32 µM	–	–	–	–	> 32 µM	–	–	–
[Cl-].c1ccc(-c2ccc3ccccc3n2)[c]([Ir+][c]2ccccc2-c2ccc3ccccc3n2)c1.c1ccc(-c2ccccn2)nc1 [TIr3]	approximately 10 nm	0.89 ± 0.02 µM	7.51 ± 0.84 µM	1.53 ± 0.07 µM	8.77 ± 0.73 µM	–	3.86 ± 0.18 µM	low cell viability	10.7 ± 0.39 µM	0.89 ± 0.09 µM	7.88 ± 0.13 µM	3.12 ± 0.2 µM	19.8 ± 1.99 µM	0.55 ± 0.06 µM	16.3 ± 0.17 µM

— patent publication US20260233024A1, “IRIDIUM COMPLEX, PHOTOSENSITIZER, AND COMPOSITION FOR PHOTODYNAMIC THERAPY” (UNIST(ULSAN NATIONAL INSTITUTE OF SCIENCE AND TECHNOLOGY), priority 2022, published 2026)
